The record followed here is publication PMC8861050, “Design, synthesis and evaluation of novel 2-oxoindoline-based acetohydrazides as antitumor agents” (Scientific Reports, 2022).

Data set [1] can be described thus: Cytotoxicity on normal mesenchymal stem cells. In kind it is cell-based. To be noted: human bone marrow-derived mesenchymal stem cells; mean ± SEM; read-out: Cytotoxicity (IC50) MSCs. How it is done:
Overally, 5-fluorinated compounds (4i–p and 5d–f) were slightly more cytotoxic than non-fluorinated ones (4a–h, 5a–c). For compounds in series 4a–p, it was observed that, electron-releasing substituents (–OCH3, OH) were generally better than electron-withdrawing groups (–Cl) for cytotoxicity. Especially, compounds with 2-OH substituents produced the best cytotoxicity. The addition of either 4-OCH3 or 3-allyl groups further enhanced cytotoxicity of the related compounds (4g, 4h and 4o, 4p).

In another data set the test system is SW620 (colon cancer). Briefly: SRB cytotoxicity assay, SW620. In kind it is cell-based. To be noted: Homo sapiens, SW-620, 48 h incubation, mean ± SEM of 3 independent experiments. An excerpt: (§1) Three human cancer cell lines: colon cancer (SW620), prostate cancer (PC3), and lung cancer (NCI-H23) were used for sceening the cytotoxicity of the compounds. The cancer cells were purchased from American Type Culture Collection (Manassas, VA, USA). Other reagents/media for cell culture were obtained from GIBCO (Grand Island, New York, USA). The testing cancer cells were culture in Dulbecco’s Modified Eagle Medium until confluence. Then, they were trypsinized and suspended at the level of 3 × 10^4 cells/mL of cell culture medium. On day 0, cancer cells were seeded at a volume of 180 µL/well of 96-well plates and incubated for 24 h at 37 °C in a 5% CO2 incubator. On day 1, 20 µL of various concentrations of testing compounds were added to each well of the 96-well plates. Chemicals were dissolved in dimethyl sulfoxide (DMSO, stock) and diluted in culture medium (1% DMSO) before adding to the culture. After 48 h incubation, the sulforhodamine B assay was used for cell density determination with slight modifications[22]–[26]. The Probits were used for the calculation of IC50 values. The reported IC50 were the averages of three independent screening (SD ≤ 10%)[27].
(§2) Two series of compounds synthesized (4a–p and 5a–f) were evaluated for their cytotoxicity against three human cancer cell lines, including SW620 (colon cancer), PC3 (prostate cancer), NCI-H23 (lung cancer), using SRB method as described previously[22] with slight modifications[23]–[26].
A general note: The SRB assay estimates cell density from bound dye.

In another data set the test system is NCI-H23 (lung cancer). Kind of data set: SRB cytotoxicity assay, NCI-H23. To be noted: Homo sapiens, 48 h incubation, mean ± SEM of 3 independent experiments. Format: cell-based.
From the text: as §1, §2

Data set [2] relates to U937 human lymphoma cells. Kind of data set: Cell cycle analysis (PI, flow cytometry). In kind it is cell-based. To be noted: 50 µM, 24 h. As to the method: U937 human lymphoma cells (5 × 10^5/mL per well) were plated in 6-well culture plates and allowed to grow for 24 h. In our first experiment, we examined the effects of 4f, 4h, 4n, 4o, 4p, and PAC-1 on cell cycles at 50 µM. In the second experiment, we examined the dose-dependent effect of 4o at 5, 10, and 30 µM and PAC-1 at 30 µM on cell cycles. The cells were treated with compounds for 24 h, and then harvested. The harvested cells were washed twice with ice-cold PBS, fixed in 75% ice-cold ethanol, and stained with propidium iodide (PI) in the presence of RNase at room temperature for 30 min. The stained cells were analyzed for DNA content using a FACScalibur flow cytometer (BD Biosciences, San Jose, CA, USA) and the data were processed using Cell Quest Pro software (BD Biosciences).
Figure 3 Cell cycle analysis after treatment with some compounds. U937 human lymphoma cells were treated with compounds (50 µM) for 24 h. The harvested cells were stained with propidium iodide (PI) in the presence of RNase and then were analyzed for DNA content by using flow cytometry. Ten thousand cells were acquired (n = 3). UN untreated, VH vehicle (DMSO. 0.1%). Representative histograms (A) and bar graphs (B) are shown. p values were calculated using one-way ANOVA in GraphPad Software (San Diego, CA, USA). *p < 0.01 vs VH control.
Figure 4 Cell cycle analysis under treatment with different concentrations of compound 4o. U937 human lymphoma cells were treated with compound 4o at 5, 10 and 30 µM or PAC-1 (30 µM) for 24 h. The harvested cells were stained with propidium iodide (PI) in the presence of RNase and then were analyzed for DNA content by using flow cytometry. Ten thousand cells were acquired (n = 3). UN untreated, VH vehicle (DMSO. 0.1%). Representative histograms (A) and bar graphs (B) are shown. p values were calculated using one-way ANOVA in GraphPad Software (San Diego, CA, USA). *p < 0.01 vs VH control.
(In general: Flow cytometry measures light scatter and fluorescence of single cells or particles in a stream.)

In another data set the test system is U937 cells. Kind of data set: Annexin V-FITC/PI apoptosis assay. Format: cell-based, human. To be noted: U937, 50 µM, 24 h. How it is done: The Annexin V-FITC/PI dual staining assay was used to determine the percentage of apoptotic cells. U937 cells (5 × 10^5/mL per well) were plated in 6-well culture plates and allowed to grow for 24 h. In our first experiment, we examined the effects of 4f, 4h, 4n, 4o, 4p, and PAC-1 on apoptosis at 50 µM. In the second experiment, we examined the dose-dependent effect of 4o at 5, 10, and 30 µM and PAC-1 at 30 µM on apoptosis. The cells were treated with compounds for 24 h, and then harvested. The harvested cells were washed twice with ice-cold PBS and incubated in the dark at room temperature in […] of 1 × binding buffer containing 1 µL Annexin V-FITC and […] PI. After 15 min incubation, cells were analyzed for percentage undergoing apoptosis using a FACScalibur flow cytometer (BD Biosciences). The data were processed using Cell Quest Pro software (BD Biosciences).
Figure 5 Apoptosis (Annexin V/PI) analysis of cells after treatment with some compounds. U937 cells were treated with compounds (50 µM) for 24 h. The harvested cells were incubated with Annexin V-FITC and PI and analyzed by using flow cytometry. Ten thousand cells were acquired (n = 3). UN untreated, VH vehicle (DMSO. 0.1%). Representative dot plots (A). Live cells, left down in dot plot. Early apoptotic cells, right down. Necrotic cells, left up, Late apoptotic cells, right up. Bar graph of late apoptotic cells (B). p values were calculated using one-way ANOVA in GraphPad Software (San Diego, CA, USA). *p < 0.01 vs VH control. TEXT PRINTED IN THE PICTURE: (A) PAC-1: 10.40%; 29.30%; 12.70% | (A) 4f: 0.52%; 6.05%; 5.41% | (A) 4h: 0.89%; 13.20%; 7.67% | (A) 4n: 0.44%; 6.83%; 5.73% | (A) 4o: 0.67%; 17.30%; 8.17% | (A) 4p: 1.60%; 13.00%; 5.86% DOUBTS OF THE COPYIST ABOUT THIS PICTURE: The quadrant percentages are in small italic print over the dot plots, so 3, 5, 6, 8 and 9 cannot always be told apart. All values given are best readings. / PAC-1: 10.40%, 29.30% and 12.70% are best readings (29.30 could be 28.30) / 4f: 0.52%, 6.05% and 5.41% are best readings (6.05 could be 6.06 or 8.05) / 4h: 0.89%, 13.20% and 7.67% are best readings (0.89 could be 0.86 or 0.69) / 4n: 0.44%, 6.83% and 5.73% are best readings (6.83 could be 6.63 or 6.88) / 4o: 0.67%, 17.30% and 8.17% are best readings (8.17 could be 6.17) / 4p: 1.60%, 13.00% and 5.86% are best readings (5.86 could be 5.88 or 5.66) / The picture prints no measure for the percentages; only their quadrant position tells them apart. They are listed upper left, upper right, lower right. / The plots UN (0.70%, 2.31%, 3.03%) and VH (1.75%, 2.43%, 3.57%) are controls, not substances, and are left out of the lines.
Figure 6 Apoptosis (Annexin V/PI) analysis of cells after treatment with different concentrations of compound 4o. U937 cells were treated with compound 4o at 5, 10 and 30 µM or PAC-1 (30 µM) for 24 h. The harvested cells were incubated with Annexin V-FITC and PI and analyzed by using flow cytometry. Ten thousand cells were acquired (n = 3). UN untreated, VH vehicle (DMSO. 0.1%). Representative dot plots (A). Live cells, left down in dot plot. Early apoptotic cells, right down. Necrotic cells, left up, Late apoptotic cells, right up. Bar graph of late apoptotic cells (B). p values were calculated using one-way ANOVA in GraphPad Software (San Diego, CA, USA). *p < 0.01 vs VH control.

A further data set deals with PC3 (prostate cancer). Briefly: SRB cytotoxicity assay, PC3. In kind it is cell-based. To be noted: Homo sapiens, 48 h incubation, mean ± SEM of 3 independent experiments.
From the text: as §1, §2

Molecules are shown by their SMILES.

What is called melting point is the temperature of the solid-liquid transition. What is called IC50 is the concentration at which inhibition is half-maximal.

`C=CCc1cccc(/C=N/NC(=O)CN2C(=O)Cc3ccccc32)c1O` [Compound 4h, (E)-N'-(3-Allyl-2-hydroxybenzylidene)-2-(2-oxoindolin-1-yl)acetohydrazide] had a melting point of 185 to 186 °C. Further, the IC50 in data set [1] worked out at 15.1 ± 0.93 µM. This molecule yielded an IC50 with SW620 (colon cancer) of 4.21 ± 0.17 µM. The molecule also came in with an IC50 in the data set on NCI-H23 (lung cancer) of 3.05 ± 0.22 µM. Also, the “Effect on cell cycle distribution” value in data set [2] is “accumulated U937 cells in the S phase”. In the data set with U937 cells, the “Apoptotic effects compared among the representative compounds” value is “more prominent”; the “Induction of apoptosis (Annexin V-FITC/PI)” value (“Induction of apoptosis” for short) was “induced early, and more substantially, late apoptosis”. Also, the IC50 in the data set with PC3 (prostate cancer) stood at 5.65 ± 0.19 µM.

Molecule `O=C(CN1C(=O)Cc2cc(F)ccc21)N/N=C/c1ccccc1O` [Compound 4n, (E)-N'-(2-Hydroxybenzylidene)-2-(5-fluoro-2-oxoindolin-1-yl)acetohydrazide] showed a melting point of 173 to 174 °C. Besides, the IC50 in data set [1] was 21 ± 0.51 µM. The molecule also had an IC50 with SW620 (colon cancer) of 4.72 ± 0.75 µM. For the same molecule, half-maximal inhibition in the data set with NCI-H23 (lung cancer) (IC50) was put at 3.7 ± 0.4 µM. In addition, the “Effect on cell cycle distribution” value in data set [2] was “accumulated U937 cells in the S phase”. Also, in the data set with U937 cells, the “Induction of apoptosis” value was “induced early, and more substantially, late apoptosis”. Also, the midpoint of inhibition in the data set with PC3 (prostate cancer), the IC50, lay at 5.08 ± 0.26 µM.

Molecule `O=C(CN1C(=O)Cc2ccccc21)N/N=C/c1ccccc1O` [Compound 4f, (E)-N'-(2-Hydroxybenzylidene)-2-(2-oxoindolin-1-yl)acetohydrazide] showed a melting point of 173 to 174 °C. In addition, the IC50 in data set [1] was found to be 23.2 ± 0.26 µM. In the data set with SW620 (colon cancer), this molecule returned an IC50 of 4.77 ± 0.53 µM. Besides, the IC50 in the data set on NCI-H23 (lung cancer) was determined as 4.3 ± 0.41 µM. Moreover, in data set [2], the “Effect on cell cycle distribution” value is “accumulated U937 cells in the S phase”. Moreover, the “Induction of apoptosis” value in the data set on U937 cells is “induced early, and more substantially, late apoptosis”. The molecule further yielded an IC50 in the data set with PC3 (prostate cancer) of 7.34 ± 0.04 µM.

Molecule `C=CCc1cccc(/C=N/NC(=O)CN2C(=O)Cc3cc(F)ccc32)c1O` [Compound 4p, (E)-N'-(3-Allyl-2-hydroxybenzylidene)-2-(5-fluoro-2-oxoindolin-1-yl)acetohydrazide] showed a melting point of 194 to 195 °C. For the same molecule, the IC50 in data set [1] stood at 15.7 ± 0.46 µM. In the data set with SW620 (colon cancer), this molecule gave an IC50 of 3.65 ± 0.23 µM. In addition, half-maximal inhibition in the data set on NCI-H23 (lung cancer) (IC50) required 2.7 ± 0.15 µM. For the same molecule, the “Effect on cell cycle distribution” value in data set [2] is “accumulated U937 cells in the S phase”. Also, in the data set on U937 cells, the “Apoptotic effects compared among the representative compounds” value is given as “more prominent”; the “Induction of apoptosis” value is “induced early, and more substantially, late apoptosis”. This molecule returned an IC50 with PC3 (prostate cancer) of 5.11 ± 0.08 µM.
